Key:
sedge, umbrella = test: Test B flooded paddy test; type: in vivo, Cyperus difformis; conditions: 500 g ai/ha, Flood; scale of 0 to 100 where 0 is no effect and 100 is complete control
Outline: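 Paddy-water application at a 3 cm flood, young plants having two leaves. Water level maintained; greenhouse, 13–15 days; visual 0–100 control rating.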

blackgrass = test: Test C pre-/postemergence herbicide test; type: in vivo, Alopecurus myosuroides
Outline: (§1)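 Herbicidal effect was judged by eye 13 to 15 days after treatment in the greenhouse, using a 0–100 scale against controls. Chemicals in a non-phytotoxic solvent with surfactant were sprayed onto planted loam/sand soil or onto plants 2 to 18 cm tall in a peat-based growing medium.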

johnsongrass = test: Test C pre-/postemergence herbicide test; type: in vivo, Sorghum halepense
Outline: as §1

morningglory = test: Test C pre-/postemergence herbicide test; type: in vivo, Ipomoea coccinea
Outline: as §1

galium = test: Test C pre-/postemergence herbicide test; type: in vivo, Galium aparine
Outline: as §1

lambsquarters = test: Test C pre-/postemergence herbicide test; type: in vivo, Chenopodium album
Outline: as §1

waterhemp = test: Test C pre-/postemergence herbicide test; type: in vivo, Amaranthus rudis
Outline: as §1

wheat = test: Test A pre-/postemergence herbicide test; type: in vivo, Triticum aestivum; conditions: Postemergence
Outline: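 Both application timings used compounds in a non-phytotoxic solvent plus surfactant. Pre-emergence: soil sprayed directly after seeding into loam/sand. Post-emergence: foliage of 2–10 cm seedlings (1–2 leaves) sprayed. Injury rated ~10 days later, 0–100.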

pigweed = test: Test C pre-/postemergence herbicide test; type: in vivo, Amaranthus retroflexus
Outline: as §1

wheat (winter wheat) = test: Test C pre-/postemergence herbicide test; type: in vivo, Triticum aestivum
Outline: as §1

crabgrass, large = test: Test C pre-/postemergence herbicide test; type: in vivo, Digitaria sanguinalis
Outline: as §1

[1] = Postemergence, 16 g ai/ha, scale 0 to 100 (0 no effect, 100 complete control)
[2] = Postemergence, 31 g ai/ha, scale 0 to 100 (0 no effect, 100 complete control)
[3] = Postemergence, 62 g ai/ha, scale 0 (no effect) to 100 (complete control)
[4] = Postemergence, 125 g ai/ha, scale 0 to 100 (0 no effect, 100 complete control)
[5] = Preemergence, 31 g ai/ha, scale 0 to 100, 0 is no effect and 100 is complete control
[6] = Preemergence, 62 g ai/ha, scale 0 to 100 (0 no effect, 100 complete control)
[7] = Preemergence, 125 g ai/ha, scale 0 to 100 (0 no effect, 100 complete control)
[8] = Preemergence, 16 g ai/ha, scale 0 to 100
[9] = 125 g ai/ha, visual rating on 0 to 100 scale (0 no effect, 100 complete control), approx. 10 days
[10] = 500 g ai/ha, 0 to 100 scale (0 no effect, 100 complete control)
[11] = Postemergence, 250 g ai/ha, scale 0 to 100 (0 no effect, 100 complete control)

Structure (SMILES): CN1CC(c2cccc(C(F)(F)F)c2)C(C(=O)Nc2ccccc2F)C1=O (stereo not shown) [Compound 277]
- Plant response rating, Sedge, Umbrella (sedge, umbrella): 0
- Plant response rating, Blackgrass (blackgrass; [1]): 0
- Plant response rating, Blackgrass (blackgrass; [2]): 0
- Plant response rating, Blackgrass (blackgrass; [3]): 0
- Plant response rating, Blackgrass (blackgrass; [4]): 0
- Blackgrass plant response rating (blackgrass; [5]): 70
- Blackgrass plant response rating (blackgrass; [6]): 70
- Plant response rating, Blackgrass (blackgrass; [7]): 90
- Plant response rating, Blackgrass (blackgrass; [8]): 40
- Plant response rating, Johnsongrass (johnsongrass; [1]): 0
- Plant response rating, Johnsongrass (johnsongrass; [2]): 0
- Plant response rating, Johnsongrass (johnsongrass; [3]): 0
- Plant response rating, Johnsongrass (johnsongrass; [4]): 10
- Johnsongrass plant response rating (johnsongrass; [5]): 40
- Johnsongrass plant response rating (johnsongrass; [6]): 65
- Plant response rating, Johnsongrass (johnsongrass; [7]): 85
- Plant response rating, Johnsongrass (johnsongrass; [8]): 0
- Plant response rating, Morningglory (morningglory; [1]): 15
- Plant response rating, Morningglory (morningglory; [2]): 30
- Plant response rating, Morningglory (morningglory; [3]): 30
- Plant response rating, Morningglory (morningglory; [4]): 40
- Morningglory plant response rating (morningglory; [5]): 0
- Morningglory plant response rating (morningglory; [6]): 0
- Plant response rating, Morningglory (morningglory; [7]): 45
- Plant response rating, Morningglory (morningglory; [8]): 0
- Plant response rating, Galium (galium; [1]): 40
- Plant response rating, Galium (galium; [2]): 45
- Plant response rating, Galium (galium; [3]): 60
- Plant response rating, Galium (galium; [4]): 75
- Galium plant response rating (galium; [5]): 100
- Galium plant response rating (galium; [6]): 90
- Plant response rating, Galium (galium; [7]): 100
- Plant response rating, Galium (galium; [8]): 0
- Plant response rating, Lambsquarters (lambsquarters; [1]): 25
- Plant response rating, Lambsquarters (lambsquarters; [2]): 30
- Plant response rating, Lambsquarters (lambsquarters; [3]): 40
- Plant response rating, Lambsquarters (lambsquarters; [4]): 40
- Lambsquarters plant response rating (lambsquarters; [5]): 20
- Lambsquarters plant response rating (lambsquarters; [6]): 75
- Plant response rating, Lambsquarters (lambsquarters; [7]): 80
- Plant response rating, Lambsquarters (lambsquarters; [8]): 0
- Plant response rating, Waterhemp (waterhemp; [1]): 5
- Plant response rating, Waterhemp (waterhemp; [2]): 5
- Plant response rating, Waterhemp (waterhemp; [3]): 5
- Plant response rating, Waterhemp (waterhemp; [4]): 5
- Waterhemp plant response rating (waterhemp; [5]): 35
- Waterhemp plant response rating (waterhemp; [6]): 50
- Plant response rating, Waterhemp (waterhemp; [7]): 55
- Plant response rating, Waterhemp (waterhemp; [8]): 0
- Plant response rating, Wheat (wheat; [9]): 60
- Plant response rating, Wheat (wheat; [10]): 70
- Plant response rating, Pigweed (pigweed; [1]): 5
- Plant response rating, Pigweed (pigweed; [2]): 10
- Plant response rating, Pigweed (pigweed; [3]): 10
- Plant response rating, Pigweed (pigweed; [4]): 30
- Pigweed plant response rating (pigweed; [5]): 10
- Pigweed plant response rating (pigweed; [6]): 35
- Plant response rating, Pigweed (pigweed; [7]): 40
- Plant response rating, Pigweed (pigweed; [8]): 0
- Plant response rating, Wheat (wheat (winter wheat); [1]): 0
- Plant response rating, Wheat (wheat (winter wheat); [2]): 0
- Plant response rating, Wheat (wheat (winter wheat); [3]): 0
- Plant response rating, Wheat (wheat (winter wheat); [4]): 0
- Wheat plant response rating (wheat (winter wheat); [5]): 60
- Wheat plant response rating (wheat (winter wheat); [6]): 70
- Plant response rating, Wheat (wheat (winter wheat); [8]): 40
- Plant response rating, Crabgrass, Large (crabgrass, large; [1]): 5
- Plant response rating, Crabgrass, Large (crabgrass, large; [2]): 15
- Plant response rating, Crabgrass, Large (crabgrass, large; [3]): 65
- Plant response rating, Crabgrass, Large (crabgrass, large; [4]): 70
- Crabgrass, Large plant response rating (crabgrass, large; [5]): 98
- Crabgrass, Large plant response rating (crabgrass, large; [6]): 100
- Plant response rating, Crabgrass, Large (crabgrass, large; [7]): 100
- Plant response rating, Crabgrass, Large (crabgrass, large; [8]): 95

Structure (SMILES): CN1CC(c2ccc(F)c(F)c2)C(C(=O)Nc2ccccc2F)C1=O (stereo not shown) [Compound 302]
- Plant response rating, Sedge, Umbrella (sedge, umbrella): 0
- Plant response rating, Blackgrass (blackgrass; [2]): 0
- Plant response rating, Blackgrass (blackgrass; [3]): 0
- Plant response rating, Blackgrass (blackgrass; [4]): 0
- Plant response rating, Blackgrass (blackgrass; [11]): 5
- Blackgrass plant response rating (blackgrass; [5]): 0
- Blackgrass plant response rating (blackgrass; [6]): 30
- Plant response rating, Blackgrass (blackgrass; [7]): 60
- Plant response rating (scale of 0 to 100), Blackgrass (blackgrass; Preemergence, 250 g ai/ha): 85
- Plant response rating, Johnsongrass (johnsongrass; [2]): 0
- Plant response rating, Johnsongrass (johnsongrass; [3]): 0
- Plant response rating, Johnsongrass (johnsongrass; [4]): 0
- Plant response rating, Johnsongrass (johnsongrass; [11]): 10
- Johnsongrass plant response rating (johnsongrass; [5]): 0
- Johnsongrass plant response rating (johnsongrass; [6]): 15
- Plant response rating, Johnsongrass (johnsongrass; [7]): 45
- Plant response rating (scale of 0 to 100), Johnsongrass (johnsongrass; Preemergence, 250 g ai/ha): 65
- Plant response rating, Morningglory (morningglory; [2]): 10
- Plant response rating, Morningglory (morningglory; [3]): 15
- Plant response rating, Morningglory (morningglory; [4]): 50
- Plant response rating, Morningglory (morningglory; [11]): 25
- Morningglory plant response rating (morningglory; [5]): 0
- Morningglory plant response rating (morningglory; [6]): 0
- Plant response rating, Morningglory (morningglory; [7]): 0
- Plant response rating (scale of 0 to 100), Morningglory (morningglory; Preemergence, 250 g ai/ha): 0
- Plant response rating, Galium (galium; [2]): 10
- Plant response rating, Galium (galium; [3]): 15
- Plant response rating, Galium (galium; [4]): 10
- Plant response rating, Galium (galium; [11]): 45
- Galium plant response rating (galium; [5]): 0
- Galium plant response rating (galium; [6]): 5
- Plant response rating, Galium (galium; [7]): 85
- Plant response rating (scale of 0 to 100), Galium (galium; Preemergence, 250 g ai/ha): 85
- Plant response rating, Lambsquarters (lambsquarters; [2]): 10
- Plant response rating, Lambsquarters (lambsquarters; [3]): 20
- Plant response rating, Lambsquarters (lambsquarters; [4]): 60
- Plant response rating, Lambsquarters (lambsquarters; [11]): 70
- Lambsquarters plant response rating (lambsquarters; [5]): 0
- Lambsquarters plant response rating (lambsquarters; [6]): 0
- Plant response rating, Lambsquarters (lambsquarters; [7]): 60
- Plant response rating (scale of 0 to 100), Lambsquarters (lambsquarters; Preemergence, 250 g ai/ha): 65
- Plant response rating, Waterhemp (waterhemp; [2]): 10
- Plant response rating, Waterhemp (waterhemp; [3]): 20
- Plant response rating, Waterhemp (waterhemp; [4]): 20
- Plant response rating, Waterhemp (waterhemp; [11]): 25
- Waterhemp plant response rating (waterhemp; [5]): 30
- Waterhemp plant response rating (waterhemp; [6]): 35
- Plant response rating, Waterhemp (waterhemp; [7]): 65
- Plant response rating (scale of 0 to 100), Waterhemp (waterhemp; Preemergence, 250 g ai/ha): 55
- Plant response rating, Wheat (wheat; [9]): 0
- Plant response rating, Wheat (wheat; [10]): 50
- Plant response rating, Pigweed (pigweed; [2]): 15
- Plant response rating, Pigweed (pigweed; [3]): 20
- Plant response rating, Pigweed (pigweed; [4]): 20
- Plant response rating, Pigweed (pigweed; [11]): 30
- Pigweed plant response rating (pigweed; [5]): 0
- Pigweed plant response rating (pigweed; [6]): 20
- Plant response rating, Pigweed (pigweed; [7]): 25
- Plant response rating (scale of 0 to 100), Pigweed (pigweed; Preemergence, 250 g ai/ha): 0
- Plant response rating, Wheat (wheat (winter wheat); [2]): 0
- Plant response rating, Wheat (wheat (winter wheat); [3]): 0
- Plant response rating, Wheat (wheat (winter wheat); [4]): 0
- Plant response rating, Wheat (wheat (winter wheat); [11]): 0
- Wheat plant response rating (wheat (winter wheat); [5]): 0
- Wheat plant response rating (wheat (winter wheat); [6]): 5
- Plant response rating (scale of 0 to 100), Wheat (wheat (winter wheat); Preemergence, 250 g ai/ha): 30
- Plant response rating, Crabgrass, Large (crabgrass, large; [2]): 0
- Plant response rating, Crabgrass, Large (crabgrass, large; [3]): 50
- Plant response rating, Crabgrass, Large (crabgrass, large; [4]): 70
- Plant response rating, Crabgrass, Large (crabgrass, large; [11]): 85
- Crabgrass, Large plant response rating (crabgrass, large; [5]): 95
- Crabgrass, Large plant response rating (crabgrass, large; [6]): 98
- Plant response rating, Crabgrass, Large (crabgrass, large; [7]): 100
- Plant response rating (scale of 0 to 100), Crabgrass, Large (crabgrass, large; Preemergence, 250 g ai/ha): 100
